Experimental findings from patent publication US20230383291A1, “PEPTIDE-BASED TRANSDUCTION OF NON-ANIONIC POLYNUCLEOTIDE ANALOGS FOR GENE EXPRESSION MODULATION” (FELDAN BIO INC., priority 2020, published 2023) are described below.

This data set concerns Gli1 protein. Description: Gli1 knock-down in DU145 cells, Western blot. The data set is classed as cell-based, Human. As to conditions: 6 μM PMO. The protocol: DU145 cells were trypsinized and plated (500 000 cells/well) in a 24 well-dish the day prior to the experiment. […] Cells were washed once with PBS and delivery mixes were added on cells for five minutes. Then, 2 mL of RPMI-1640 containing 10% FBS was added to the mix and removed. Untreated cells were incubated with RPMI-1640 only. Cells were incubated in fresh RPMI-1640 containing 10% FBS. Forty height hours later, medium was removed and cells were washed once with PBS prior to trypsinization. Cells were harvested, collected by centrifugation, washed, and resuspended with PBS. Then, PMO-FITC positive and PMO-FITC negative cells were sorted and collected by virtue of FACS (BD FACS Aria Fusion). FITC-positive and FITC-negative cell samples were collected by centrifugation and resuspended in 50 μL protein extraction RIPA buffer (150 mM NaCl, 1% Nonidet™ P-40, 0.1% SDS, 0.5% Sodium deoxycholate, 25 mM Tris). Total protein concentrations were measured with a BCA protein assay kit. For all conditions, 10 μg of proteins were prepared at a final volume of 40 μL with 4× Laemmeli and RIPA buffer. Protein samples were then heated at 90° C. and separated through an 8% SDS-PAGE gel. Proteins were then transferred over night (25 volts) onto a […] PVDF membrane. Membranes were blocked using a 5% bovine serum albumin, Tris Buffer Saline, 0.1% Tween® 20 solution (5% BSA/TBS-T) for an hour. After blocking, the membrane was incubated for an hour with a 5% BSA/TBS-T solution containing anti alpha-Actinin (D6F6) primary antibody at a 1:1000. Alpha-Actinin protein present in the cell lysates served as loading control. Subsequently, the membranes were incubated over night with a 5% BSA/TBS-T solution containing anti-Gli1 primary antibody diluted 1:500. The membrane was then subjected to a 1-hour incubation at 1:5000 dilution of HRP-conjugated goat anti-rabbit secondary antibody 5% BSA/TBS-T solution. Chemiluminescence detection was performed using Clarity™ Western ECL Substrate and a ChemiDoc™ XRS apparatus. Gli1 and Alpha-Actinin densitometry was assessed using ImageJ™ software. […]
In general terms: A western blot detects proteins with antibodies after separation by electrophoresis.

Consider “PMO-Gli1: antisense PMO molecule designed to knock-down expression of the Gli1 protein; off-target control in the GFPd assay (antisense GTCATCGAGTTGAACATGGCGTCTC; all phosphorodiamidate morpholino (PMO))”, for which the Gli1 protein expression result runs as follows: (3.75 μM FSD250, 48 hours) “knocked-down”; (FITC+ cells vs FITC− cells, 5 μM FSD250, 48 hours) “knocked-down”.
